In US20090312349A1, “ANTI-INFLAMMATORY MEDICAMENTS” (priority 2004, published 2009):

Molecular target: T1, phospho p-38 alpha kinase (Homo sapiens, UniProt Q16539)
T1 construct: purchased Panvera
Experiment: P-38 alpha kinase assay (spectrophotometric, pyruvate kinase/lactate dehydrogenase coupled)
Type: biochemical
Conditions: Table 3; rates at […] to 2 h; read-out: IC50
Experimental: In this assay, the oxidation of NADH was continuously measured spectrophometrically. […] The reaction was initiated by adding ATP. The absorption at 340 nm was monitored continuously for up to 4 hours at 30° C. on Polarstar Optima plate reader (BMG). The kinase activity (reaction rate) was calculated from the slope at the time frame from 1.5 h to 2 h.
For inhibition determinations, test compounds were incubated with the reaction mixture for ˜5 min before adding ATP to start the reaction. […] IC50 values were calculated from a series of % inhibition values determined at a range of concentrations of each inhibitor using Prism to process the data and fit inhibition curves. Generally, the rates obtained at the time frame of 1.5 h to 2 h were used for these calculations.

T1 sequence (Q16539 whole entry): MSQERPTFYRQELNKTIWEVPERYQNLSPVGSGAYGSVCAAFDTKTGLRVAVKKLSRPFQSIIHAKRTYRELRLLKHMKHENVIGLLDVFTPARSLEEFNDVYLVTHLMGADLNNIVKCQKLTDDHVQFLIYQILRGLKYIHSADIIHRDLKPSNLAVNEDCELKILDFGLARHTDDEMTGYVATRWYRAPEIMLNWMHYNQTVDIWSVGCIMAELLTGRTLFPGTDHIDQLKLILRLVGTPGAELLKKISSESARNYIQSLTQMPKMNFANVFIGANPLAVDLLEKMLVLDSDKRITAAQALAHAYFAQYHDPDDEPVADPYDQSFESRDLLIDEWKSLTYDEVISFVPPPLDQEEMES

First: CC(C)(C)c1cc(NC(=O)Nc2cccc(F)c2F)n(-c2ccc(CC(=O)O)cc2)n1 [Example 204, 2-(4-(3-t-butyl-5-(3-(2,3-difluorophenyl)ureido)-1H-pyrazol-1-yl)-phenyl)acetic acid]
Second: CC(C)(C)c1cc(NC(=O)Nc2cccc(Cl)c2Cl)n(-c2cccc(C(N)=O)c2)n1 [Example 289, 1-[3-t-butyl-1-(3-carbamoylphenyl)-1H-pyrazol-5-yl]-3-(2,3-dichlorophenyl)urea]
The IC50 of the first is 160-fold lower: 0.008 µM for the first, 1.3 µM for the second. The first is the more potent here.

`COc1cccc(-n2nc(C(C)(C)C)cc2NC(=O)Nc2ccc(F)cc2)c1` [Example 206, 1-(3-t-butyl-1-(3-methoxyphenyl)-1H-pyrazol-5-yl)-3-(4-fluorophenyl)urea] showed an IC50 of 0.013 µM.

Same assay, conditions: Table 5; @ 1 uM

With `CC(Cc1cccc(-n2nc(C(C)(C)C)cc2NC(=O)Nc2cccc(Cl)c2Cl)c1)C(=O)O` (stereo not shown) [Example 323, 3-(3-{3-t-butyl-5-[3-(2,3-dichlorophenyl)ureido]-1H-pyrazol-1-yl}-1-phenyl)-2-methylpropanoic acid] the “% @ concentration, uM” value was 9%.

Same assay, conditions: Table 5; @ 2 uM

Going from `CCOC(=O)c1ccc(-n2nc(C(F)(F)F)cc2NC(=O)Nc2ccc(Cl)cc2)cc1` [Example 338, ethyl 4-{5-[3-(4 chlorophenyl)ureido]-3-(trifluoromethyl)-1H-pyrazol-1-yl}benzoate] to `O=C(Nc1ccc(Cl)cc1)Nc1cc(C(F)(F)F)nn1-c1ccc(CO)cc1` [Example 339, 1-(4-chlorophenyl)-3-{3-(trifluoromethyl)-1-[4-(hydroxyl-methyl)phenyl]-1H-pyrazol-5-yl}urea], the “% @ concentration, uM” value rises from 7% @ 2 to 9% @ 2.

Same assay, conditions: Table 5; @ 10 uM

`CC(C)(C)c1cc(NC(=O)Nc2cccc(F)c2F)n(-c2ccc(CO)cc2)n1` [Example 315, 1-{3-t-butyl-1-[4-(hydroxymethyl)phenyl]-1H-pyrazol-5-yl}-3-(2,3-difluoro-phenyl)urea] and `CC(Cc1ccc(-n2nc(C(C)(C)C)cc2NC(=O)Nc2cccc3ccccc23)cc1)C(=O)O` (stereo not shown) [Example 325, 3-(4-{3-t-butyl-5-[3-(naphthalen-1-yl)ureido]-1H-pyrazol-1-yl}phenyl)-2-methylpropanoic acid] are the same in “% @ concentration, uM” value: 54% @ 10 for the first, 54% @ 10 for the second.

Compared with `CCOC(=O)C(C)Cc1ccc(-n2nc(C(C)(C)C)cc2NC(=O)Nc2cccc3ccccc23)cc1` (stereo not shown) [Example 324, ethyl 3-(4-{3-t-butyl-5-[3-(naphthalen-1-yl)ureido]-1H-pyrazol-1-yl}phenyl)-2-methylpropanoate], `CCOC(=O)C(C)Cc1ccc(-n2nc(C(C)(C)C)cc2NC(=O)Nc2ccc(Cl)cc2)cc1` (stereo not shown) [Example 326, ethyl 3-(4-{3-t-butyl-5-[3-(4-chlorophenyl)ureido]-1H-pyrazol-1-yl}phenyl)-2-methylpropanoate] is higher in “% @ concentration, uM” value: 40% @ 10 for the first, 41% @ 10 for the second.

First: CCOC(=O)c1cccc(-n2nc(-c3ccccc3)cc2NC(=O)Nc2cccc3ccccc23)c1 [Example 328, ethyl 3-[5-(3-naphthalen-1-yl-ureido)-3-phenyl-pyrazol-1-yl]benzoate]
Second: CCOC(=O)c1cccc(-n2nc(C)cc2NC(=O)Nc2cccc3ccccc23)c1 [Example 340, ethyl 3-{3-methyl-5-[3-(naphthalen-1-yl)ureido]-1H-pyrazol-1-yl}benzoate]
The “% @ concentration, uM” value of the first is higher: 68% @ 10 for the first, 31% @ 10 for the second.

Going from `O=C(Nc1ccc(Cl)cc1)Nc1cc(-c2ccccc2)nn1-c1ccc(CO)cc1` [Example 331, 1-(4-chlorophenyl)-3-{1-[4-(hydroxymethyl)phenyl]-3-phenyl-1H-pyrazol-5-yl}-urea] to `CC(C)(O)c1cccc(-n2nc(C(F)(F)F)cc2NC(=O)Nc2cccc3ccccc23)c1` [Example 337], the “% @ concentration, uM” value falls from 71% @ 10 to 8% @ 10.

`CCOC(=O)c1cccc(-n2nc(C(F)(F)F)cc2NC(=O)Nc2cccc3ccccc23)c1` [Example 336] was tested, and the “% @ concentration, uM” value was 27% @ 10.

In the case of `CC(Cc1cccc(-n2nc(C(C)(C)C)cc2NC(=O)Nc2cccc(Cl)c2Cl)c1)C(=O)O` (stereo not shown) [Example 323, 3-(3-{3-t-butyl-5-[3-(2,3-dichlorophenyl)ureido]-1H-pyrazol-1-yl}-1-phenyl)-2-methylpropanoic acid], the “% @ concentration, uM” value is reported as 51%.

Same assay, conditions: Table 5; assay not named; read-out: uM

First: CC(C)(C)c1cc(NC(=O)Nc2cccc(Cl)c2)n(-c2cccc(CO)c2)n1 [Example 303]
Second: COc1cccc(NC(=O)Nc2cc(C(C)(C)C)nn2-c2cccc(CO)c2)c1 [Example 306, 1-{3-t-butyl-1-[3-(hydroxymethyl)phenyl]-1H-pyrazol-5-yl}-3-(3-methoxyphenyl)urea]
The IC50 of the first is 1.5-fold higher: 0.089 µM for the first, 0.058 µM for the second. The second is the more potent here.

Compared with `CC(C)(C)c1cc(NC(=O)Nc2cccc3ccccc23)n(-c2cccc(CN)c2)n1` [Example 307, 1-(3-t-butyl-1-(3-(aminomethyl)phenyl)-1H-pyrazol-5-yl)-3-(naphthalen-1-yl)urea], `CCOC(=O)Cc1cccc(-n2nc(C(C)(C)C)cc2NC(=O)Nc2cccc3ccccc23)c1` [Example 319, ethyl 2-(3-{3-t-butyl-5-[3-(naphthalen-1-yl)ureido]-1H-pyrazol-1-yl}phenyl)acetate] is 6.5-fold higher in IC50: 0.049 µM for the first, 0.32 µM for the second.

Going from `CNC(=O)Cc1cccc(-n2nc(C(C)(C)C)cc2NC(=O)Nc2cccc(Cl)c2Cl)c1` [Example 310] to `CCOC(=O)Cc1cccc(-n2nc(C(C)(C)C)cc2NC(=O)Nc2cccc(Cl)c2Cl)c1` [Example 321, ethyl 2-(3-{3-t-butyl-5-[3-(2,3-dichlorophenyl)ureido]-1H-pyrazol-1-yl}phenyl)acetate], the IC50 rises from 0.13 µM to 0.52 µM (4-fold).

`CCOC(=O)CCc1cccc(-n2nc(-c3ccccc3)cc2NC(=O)Nc2ccc(Cl)cc2)c1` [Example 311, 3-(3-{5-[3-(4-chlorophenyl)-ureido]-3-phenyl-pyrazol-1-yl}-phenyl)-propionic acid ethyl ester] and `CCOC(=O)CCc1cccc(-n2nc(C(C)C)cc2NC(=O)Nc2ccc(Cl)cc2)c1` [Example 313, ethyl 3-(3-(5-(3-(4-chlorophenyl)ureido)-3-isopropyl-1H-pyrazol-1-yl)phenyl)propanoate] are within 1.5-fold of each other in IC50: 0.182 µM for the first, 0.25 µM for the second.

`COc1ccc(-n2nc(C(C)(C)C)cc2NC(=O)Nc2cccc(F)c2F)cc1` [Example 312, 1-[3-t-butyl-1-(4-methoxyphenyl)-1H-pyrazol-5-yl]-3-(2,3-difluorophenyl)urea] and `CCOC(=O)c1ccc(-n2nc(C(C)(C)C)cc2NC(=O)Nc2cccc(F)c2F)cc1` [Example 314, ethyl 4-{3-t-butyl-5-[3-(2,3-difluorophenyl)ureido]-1H-pyrazol-1-yl}benzoate] are within 1.5-fold of each other in IC50: 0.349 µM for the first, 0.25 µM for the second.

Compared with `CCOC(=O)Cc1ccc(-n2nc(C(C)(C)C)cc2NC(=O)Nc2cccc3ccccc23)cc1` [Example 316, ethyl 2-(4-{3-t-butyl-5-[3-(naphthalen-1-yl)ureido]-1H-pyrazol-1-yl}phenyl)acetate], `CCOC(=O)Cc1ccc(-n2nc(C(C)(C)C)cc2NC(=O)Nc2cccc(Cl)c2Cl)cc1` [Example 318] is 1.6-fold higher in IC50: 0.42 µM for the first, 0.67 µM for the second.

Going from `CCOC(=O)Cc1ccc(-n2nc(C(C)(C)C)cc2NC(=O)Nc2ccc(Cl)cc2)cc1` [Example 317, ethyl 2-(4-{3-t-butyl-5-[3-(4-chlorophenyl)ureido]-1H-pyrazol-1-yl}phenyl)acetate] to `CCOC(=O)Cc1cccc(-n2nc(C(C)(C)C)cc2NC(=O)Nc2ccc(Cl)cc2)c1` [Example 320, ethyl 2-(3-{3-t-butyl-5-[3-(4-chlorophenyl)ureido]-1H-pyrazol-1-yl}phenyl)acetate], the IC50 rises from 0.068 µM to 0.79 µM (12-fold).

Going from `CCOC(=O)C(C)Cc1cccc(-n2nc(C(C)(C)C)cc2NC(=O)Nc2cccc(Cl)c2Cl)c1` (stereo not shown) [Example 322, ethyl 3-(3-{3-t-butyl-5-[3-(2,3-dichlorophenyl)ureido]-1H-pyrazol-1-yl}phenyl)-2-methylpropanoate] to `CCOC(=O)c1cccc(-n2nc(C)cc2NC(=O)Nc2cccc(Cl)c2Cl)c1` [Example 342, ethyl 3-{5-[3-(2,3-dichlorophenyl)ureido]-3-methyl-1H-pyrazol-1-yl}benzoate], the IC50 falls from 2.02 µM to 1 µM (2-fold).

First: CC(Cc1ccc(-n2nc(C(C)(C)C)cc2NC(=O)Nc2ccc(Cl)cc2)cc1)C(=O)O (stereo not shown) [Example 327, 3-(4-{3-t-butyl-5-[3-(4-chlorophenyl)ureido]-1H-pyrazol-1-yl}phenyl)-2-methylpropanoic acid]
Second: CC(C)c1cc(NC(=O)Nc2ccc(Cl)cc2)n(-c2ccc(CO)cc2)n1 [Example 335, 1-(4-chlorophenyl)-3-{1-[4-(hydroxymethyl)phenyl]-3-isopropyl-1H-pyrazol-5-yl}-urea]
The IC50 of the first is 58-fold higher: 0.81 µM for the first, 0.014 µM for the second.

Going from `CC(C)(O)c1cccc(-n2nc(-c3ccccc3)cc2NC(=O)Nc2cccc3ccccc23)c1` [Example 329, 1-{1-[3-(2-hydroxypropan-2-yl)phenyl]-3-phenyl-1H-pyrazol-5-yl}-3-(naphthalen-1-yl)urea] to `CC(C)c1cc(NC(=O)Nc2cccc3ccccc23)n(-c2cccc(C(C)(C)O)c2)n1` [Example 333, 1-{1-[3-(2-hydroxypropan-2-yl)phenyl]-3-isopropyl-1H-pyrazol-5-yl}-3-(naphthalen-1-yl)urea], the IC50 rises from 0.25 µM to 2.44 µM (9.8-fold).

Going from `CCOC(=O)c1cccc(-n2nc(C(C)C)cc2NC(=O)Nc2cccc3ccccc23)c1` [Example 332, ethyl 3-(3-isopropyl-5-[3-(naphthalen-1-yl)ureido]-1H-pyrazol-1-yl)benzoate] to `CCOC(=O)c1ccc(-n2nc(C(C)C)cc2NC(=O)Nc2ccc(Cl)cc2)cc1` [Example 334, ethyl 4-{5-[3-(4-chlorophenyl)ureido]-3-isopropyl-1H-pyrazol-1-yl}benzoate], the IC50 rises from 0.05 µM to 2.2 µM (44-fold). The first is the more potent here.

Compared with `CCOC(=O)c1ccc(-n2nc(C)cc2NC(=O)Nc2ccc(Cl)cc2)cc1` [Example 344, ethyl 4-{5-[3-(4-chlorophenyl)ureido]-3-methyl-1H-pyrazol-1-yl}benzoate], `Cc1cc(NC(=O)Nc2ccc(Cl)cc2)n(-c2ccc(CO)cc2)n1` [Example 345, 1-(4-chlorophenyl)-3-{1-[4-(hydroxymethyl)phenyl]-3-methyl-1H-pyrazol-5-yl}urea] is 1.5-fold higher in IC50: 0.18 µM for the first, 0.27 µM for the second.
